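48-hour exposure; five concentrations; linearly interpolated endpoints. At the GI50, growth is halved. The concentration for full growth arrest is given as TGI.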
What was measured:
Test in all cases: NCI anticancer screen, dose series, 48 h
KM20L2 colon = tested on: KM20L2 colon
LXFL 529 NSCLC = tested on: LXFL 529 NSCLC
M19-MEL melanoma = tested on: M19-MEL melanoma
DMS 273 small cell lung = tested on: DMS 273 small cell lung
BT-549 breast = tested on: BT-549 breast
HS 578T breast = tested on: HS 578T breast
MCF7 breast = tested on: MCF7 breast
NCI/ADR-RES ovarian = tested on: NCI/ADR-RES ovarian
PC-3 prostate = tested on: PC-3 prostate
T-47D breast = tested on: T-47D breast

Row | Structure (SMILES) | TGI (KM20L2 colon) [µM] | TGI (LXFL 529 NSCLC) [µM] | TGI (M19-MEL melanoma) [µM] | TGI (DMS 273 small cell lung) [µM] | other results
1 | O=C(N/C(=C\c1cc(Cl)ccc1Cl)c1nc2[nH]c(=S)[nH]c(=O)c2[nH]1)c1ccccc1 | > 100 | 45.2 | > 68.6 | – | –
2 | CSc1ccc(/C=C2\CN(C)C/C(=C\c3ccc(SC)cc3)C2=O)cc1 | > 100 | 35.7 | > 100 | > 100 | –
3 | CCOC(=O)c1ncn2c1[nH]c(=S)c1ccccc12 | > 100 | > 100 | > 100 | > 100 | –
4 | N#CC(C#N)=c1ccc(=C2NCC3CCCN23)cc1 (stereo not drawn) | > 100 | > 100 | > 100 | > 100 | –
5 | COC(=O)[C@@]12C3=NO[C@]1(C(=O)OC)C(O[Si](C)(C)C(C)(C)C)[C@H]1OC(C)(C)O[C@H]1[C@@H]2C(OCc1ccccc1)CC3 (stereo partly drawn) | > 100 | > 100 | > 100 | > 100 | –
6 | O=[S@@]1Nc2ccc(Br)cc2S1 | > 100 | > 100 | > 100 | > 100 | –
7 | CN(CC(=O)O)S(=O)(=O)c1ccc2ccccc2c1 | > 100 | > 100 | > 100 | > 100 | –
8 | CC(=O)NC1=C(NCC(C)(C)C)C(=O)c2ccccc2C1=O | > 100 | > 100 | 39.8 | > 100 | –
9 | CC1(C)OC(=O)C(=Cc2ccc(O)cc2)C(=O)O1 | > 100 | > 100 | > 100 | > 100 | –
10 | COc1ccc(/C=C\c2cc(OC)c3c(c2)OCO3)c(O)c1O | 61.5 | 3.74 | 31.1 | > 100 | –
11 | CC(C)=CCCc1c(C)ccc2c1C(=O)C(=O)C(C(C)C)=C2 | > 22 | 6.65 | 7.87 | 7.47 | –
12 | CCN(CC)CC(C(=O)Nc1c(C)cccc1C)/C(C)=N\NC(=O)C[N+](C)(C)C (stereo not drawn) | > 100 | > 100 | > 100 | > 100 | –
13 | CC(=O)N1[C@H](C(=O)O)CS[C@H]1c1ccncc1 | > 100 | > 100 | > 100 | – | –
14 | CCNC1C2(CCCCC2)NC(=O)C12CCCCC2 (stereo not drawn) | > 100 | > 100 | > 100 | > 100 | –
15 | COc1cc2cnc3c4cc(OC(C)C)c(OC)cc4ccc3c2cc1OC | > 100 | > 100 | > 100 | – | –
16 | O=C(O)CCSC(=O)Nc1cccc(F)c1 | > 100 | > 100 | – | > 100 | –
17 | COc1ccc2c(c1)C1(C=N2)CCN(C(C)=O)CC1 | > 100 | > 100 | > 100 | > 100 | –
18 | CC1(C)COC(c2ccc(C(F)(F)F)cc2C(O)c2ccc3ccccc3c2)=N1 (stereo not drawn) | > 100 | > 100 | > 100 | > 100 | GI50 (DMS 273 small cell lung): > 100 µM; GI50 (KM20L2 colon): > 100 µM; GI50 (LXFL 529 NSCLC): > 100 µM; GI50 (M19-MEL melanoma): > 100 µM
19 | CCOC(=O)C1=C(C)CC2C(=O)OC(=O)C2C1(C)C (stereo not drawn) | – | > 100 | > 100 | – | –
20 | Cc1nc2c(nc1C)C(=O)c1ccccc1C2=O | 36.3 | > 58.3 | 1.07 | 15.3 | TGI (BT-549 breast): 3.15 µM; TGI (HS 578T breast): 6.47 µM; TGI (MCF7 breast): 3.59 µM; TGI (NCI/ADR-RES ovarian): 17.1 µM; TGI (PC-3 prostate): 30.3 µM; TGI (T-47D breast): 13.8 µM

Row | Structure (SMILES) | TGI (KM20L2 colon) [µM] | TGI (LXFL 529 NSCLC) [µM] | TGI (M19-MEL melanoma) [µM] | TGI (DMS 273 small cell lung) [µM] | other results
21 | Nc1ccc(C(=O)N/C(=C\c2ccc3c(c2)OCO3)c2nc3[nH]c(=S)[nH]c(=O)c3[nH]2)cc1 | > 100 | > 100 | > 100 | – | –
22 | COc1ccccc1NC(=O)CC(=O)n1nc(C)c(N=Nc2ccccc2C(=O)O)c1C | > 100 | > 100 | > 100 | > 100 | –
23 | O=C(/C=C/c1ccccc1Cl)c1ccc(Cl)c(Cl)c1 | 31.1 | 29.6 | 29.8 | 37.5 | –
24 | CC1=C(C(=O)Nc2ccccc2C)C(c2ccco2)C(C(=O)Nc2ccccc2C)=C(C)N1C | – | > 100 | > 100 | – | –
25 | C=CCc1cc(OC)c2c(c1)C(O)CC(c1ccc(OC)c(OC)c1)O2 (stereo not drawn) | > 100 | > 100 | > 100 | > 100 | –
26 | COc1ccc(NC(=O)c2cc(OC)cc(OC)c2)cc1 | 32 | > 100 | – | > 100 | –
27 | CCOC(=O)COc1cccc2c1C(=O)CCO2 | > 100 | > 100 | > 100 | > 100 | –
28 | CCOC(=O)C(Sc1ccccc1)c1c(OC)cc(=O)oc1/C=[N+](/[O-])c1ccc(N(C)C)cc1 (stereo not drawn) | 89.2 | 27.2 | 37.5 | 29 | –
29 | COc1ccc(-c2cc(=O)c3ccc(O)cc3o2)c(OC)c1OC | > 100 | > 100 | > 100 | – | –
30 | O=C1C2=C(SCCS2)C(=O)c2ccccc21 | 3.52 | 3.02 | 0.616 | 3.31 | –
31 | CC(=O)C(CN(C(C)C)C(C)C)C(c1ccccc1)c1c(O)c2ccccc2oc1=O (stereo not drawn) | > 100 | > 100 | > 100 | > 100 | –
32 | COc1cccc(NC(=O)CC(=O)n2nc(C)c(N=Nc3ccccc3)c2C)c1 | – | > 100 | > 100 | > 100 | –
33 | CCCCCCCCSC1=CC(=O)c2nc3ccccc3c3ccnc1c23 | – | – | – | – | GI50 (BT-549 breast): > 100 µM; TGI (BT-549 breast): > 100 µM; GI50 (HS 578T breast): > 100 µM; TGI (HS 578T breast): > 100 µM; GI50 (MCF7 breast): 20.2 µM; TGI (MCF7 breast): 57.4 µM; GI50 (NCI/ADR-RES ovarian): 97.4 µM; TGI (NCI/ADR-RES ovarian): > 100 µM; GI50 (PC-3 prostate): 77.9 µM; TGI (PC-3 prostate): > 100 µM; GI50 (T-47D breast): 84.5 µM; TGI (T-47D breast): > 100 µM
34 | CC(=O)OC(C)C(=O)C1c2cccc(O)c2C(=O)c2c(O)cc(C)cc21 (stereo not drawn) | 2.72 | – | 1.23 | 1.85 | –
35 | COc1ccc(-c2cc(-c3ccc(Nc4nc(Nc5ccccc5)nc(Nc5ccc(Cl)cc5)n4)cc3)nc(N)c2C#N)cc1 | – | – | – | – | GI50 (BT-549 breast): 0.822 µM; TGI (BT-549 breast): 2.49 µM; GI50 (HS 578T breast): 1.21 µM; TGI (HS 578T breast): 5.08 µM; GI50 (MCF7 breast): 0.941 µM; TGI (MCF7 breast): > 50 µM; GI50 (NCI/ADR-RES ovarian): 3.66 µM; TGI (NCI/ADR-RES ovarian): > 43.1 µM; GI50 (PC-3 prostate): 1.13 µM; TGI (PC-3 prostate): 7.94 µM; GI50 (T-47D breast): 0.733 µM; TGI (T-47D breast): 1.65 µM
36 | O=[N+]([O-])c1cnc(Sc2ccncn2)s1 | – | – | – | – | GI50 (BT-549 breast): 4.84 µM; TGI (BT-549 breast): 9.55 µM; GI50 (HS 578T breast): 2.37 µM; TGI (HS 578T breast): 5.59 µM; GI50 (MCF7 breast): 1.65 µM; TGI (MCF7 breast): 3.45 µM; GI50 (NCI/ADR-RES ovarian): 11.3 µM; TGI (NCI/ADR-RES ovarian): 38.3 µM; GI50 (PC-3 prostate): 2.73 µM; TGI (PC-3 prostate): 17 µM; GI50 (T-47D breast): 2.16 µM; TGI (T-47D breast): 4.68 µM
37 | O=C(O)C(Cc1ccccc1)N1C(=O)N/C(=C\c2ccc(F)cc2)C1=O (stereo not drawn) | – | > 100 | > 100 | > 100 | –
38 | COc1ccc(-n2/c(=N/C(=S)N(C)C)ss/c2=N\C(=S)N(C)C)cc1 | > 100 | – | > 100 | > 100 | –
39 | COc1cc2nc(-c3ccc(C(F)(F)F)cc3)cc(OCCCN3CCC(O)CC3)c2cc1OC | – | – | – | – | GI50 (BT-549 breast): 6.59 µM; TGI (BT-549 breast): 22.1 µM; GI50 (HS 578T breast): 3.75 µM; TGI (HS 578T breast): 20.9 µM; GI50 (MCF7 breast): 2.57 µM; TGI (MCF7 breast): 18.2 µM; GI50 (NCI/ADR-RES ovarian): 0.847 µM; TGI (NCI/ADR-RES ovarian): 22.7 µM; GI50 (PC-3 prostate): 3.66 µM; TGI (PC-3 prostate): 19.5 µM; GI50 (T-47D breast): 2.97 µM; TGI (T-47D breast): 19.1 µM

Reference: PubChem BioAssay (NCI)
